The record followed here is patent US8168596B2, “Use of cycloartane compounds for treating arthritis” (NuLiv Holding Inc., priority 2008, dated 2012).

Common to all, as to format: cell-based, human
The subject of one data set is MMP-13. Nature of the data set: Western blot of MMP-13 in PMA- or IL-1β-pre-treated SW1353 cells (Example 6). As to conditions: 0.1 μM, 48 h. As to the method: The cells were then plated on 6-cm dishes at a density of 1×10^6 cells/dish for 24 hours prior to any treatment. At the beginning of the experiment, the cells were pre-treated with 100 ng/mL PMA or 10 ng/mL IL-1β for 24 hours. The cells were then treated 0.1 μM Dexamethasone with, various astragaloside compounds (0.1 μM) or extracts of Astragalus membranaceous (1 μg/mL) at indicated dosages for another 48 hours. For control sample, 0.1% DMSO was used as a negative control for these experiments. The conditioned culture mediums were then centrifuged, 2-fold concentrated and collected for assay of collagens or MMPs secreted into the culture medium.
Western blotting analysis was carried out on both cultured medium and cell lysates, as follows. The cells were washed and lysed in 0.2 mL of lysis buffer (1% NP-40, 50 mM Tris-HCl, pH 7.4, 180 mM NaCl, 1 mM EDTA, 1 mM PMSF, 1 mM NaF, 10 mM Na3VO4) for 30 min at 4° C. After centrifuging at 17500 g for 15 min, the supernatants of cell lysate were also collected. Protein concentration of the samples were measured using the bicinchoninic acid (BCA) protein assay kit according to the manufacturer's protocol (Pierce, Rockford, Ill., USA). Equal amount of protein samples of concentrated conditioned medium (100 μg) or cell lysate supernatants (50 μg) were mixed with an appropriate volume of 4×SDS sampling buffer and separated by 8% SDS-PAGE gel. The protein bands separated in the SDS-PAGE gel were blotted onto a polyvinylidene fluoride (PVDF) membrane. The blotted PVDF membrane was washed twice and blocked in freshly prepared Tris-buffered saline (TBS) containing 0.1% Tween-20 and 7% skim milk (TBST) for 2 hours at room temperature. […] Horseradish peroxidase-conjugated anti-goat antibody was used as secondary antibody. Signals were visualized by an enhanced chemiluminescence kit (Clonetech, Palo Alto, Calif., USA) followed by exposure to X-ray films.

In data set [1] the test system is ERK1 (P44) and ERK2 (P42). Briefly: Western blotting of ERK1/ERK2 in PMA-treated SW1353 cells. The conditions noted are these: PMA 100 ng/mL 2 h, then 1 μM AS4 24 h; value without AS4 2.7.
The test system of the next data set is MMP-2. Briefly: Zymography of MMP-2 from pre-treated SW1353 cells. As to conditions: PMA-pre-treated SW1353; 0.1 μM, 24 h. As for the experimental part:
At the beginning of the experiment, the cells were pre-treated with 100 ng/mL PMA or 10 ng/mL IL-1β for 24 hours. The cells were then treated with 0.1 μM Dexamethasone, various astragaloside compounds (0.1 μM) or extracts of Astragalus membranaceous (1 μg/mL) at indicated dosages for another 24 hours. For control sample, 0.1% DMSO was used as a negative control for these experiments. The conditioned culture mediums were then centrifuged, 2-fold concentrated and collected for assay of collagens or MMPs secreted into the culture medium.
The proteolytic activities of MMPs from SW1353 cells were measured essentially as described previously (Circ Res, 1999; 85:906-911). The cells were lysed in lysis buffer (1% Triton X-100, 50 mM Tris-Cl, pH 7.4, 180 mM NaCl, 1 mM EDTA). The samples were measured for their protein concentration using the bicinchoninic acid (BCA) protein assay kit as described. Samples of concentrated conditioned medium and cell lysates were mixed with non-reducing electrophoresis loading buffer and subjected to electrophoresis under non-reducing conditions. The electrophoresis was carried out on a 10% SDS-PAGE co-polymerized with 2 mg/mL gelatin or casein (Sigma, St. Louis, Mo. USA). For zymographic analysis of pro-MMP-2 and activated MMP-2, the total 20 μg of culture medium were used for electrophoresis. Following electrophoresis, renaturation of the proteins was achieved by incubating the gels twice in 25 g/L Triton X-100 at room temperature for 10 min. Subsequently the gels were incubated in 50 mM Tris-HCl, pH 7.5 containing 0.2 M NaCl, 0.02% Brij35 and 10 mM CaCl2 at 37° C. for 18 hours. After the gels were stained with Coomassie Brilliant Blue R-250 and destained, zones of proteolytic activities became visible as transparent bands in the stained gel. In order to obtain higher sensitivity, the gels were further destained in a solution of 1% Triton X-100 (1 to 2 hours). This procedure increased the signal-to-noise ratio, allowing the visualization of faint gelatinase bands at 92 kDa, 125 kDa and greater than 200 kDa. Zymograms were read using a Molecular Dynamics (Sunnyvale, Calif., USA) computing laser densitometer with Image Quant software.

For another data set, the system named is SW1353 cells. Nature of the data set: Cell viability assay (Cell Counting Kit 8). The conditions noted are these: AS4 0.01-20 μM. As to the method: The culture medium was replaced every other day. After confluence, the cells were subcultured following trypsinization. For subcultures, cells were harvested after brief treatment with 0.1% trypsin/ethylenediaminetetraacetic acid (EDTA) solution and seeded at a dilution of 1:10. Cells between passages 12 and 45 were used for studies.
Then SW1353 cells were treated with astragaloside IV (AS4) at a concentration of 0.01 μM, 0.1 μM, 1 μM, 2 μM, 5 μM, 10 μM or 20 μM, followed by incubating for 24 hours or 48 hours. Later, the SW1353 cell culture in each well was treated with 10 μl Cell Counting Kit 8 solution (Dojindo molecular technologies, Gaithersburg, Md., USA), followed by incubation at 37° C. in a humidified incubator with 5% CO2 for 1-4 hours. Then, the absorbance of the SW1353 cell cultures was detected by an EIA reader at 450 nm. Compared with that of the control group, the viability of the experimental groups was analyzed.
For orientation: Formazan colour is commonly taken as a measure of viable cells.

Molecules are shown by their SMILES.

Consider `CC(C)(O)[C@@H]1CC[C@](C)([C@H]2[C@@H](O)C[C@@]3(C)[C@@H]4C[C@H](O[C@@H]5O[C@H](CO)[C@@H](O)[C@H](O)[C@H]5O)[C@H]5C(C)(C)[C@@H](O[C@@H]6OC[C@@H](O)[C@H](O)[C@H]6O)CC[C@@]56C[C@@]46CC[C@]23C)O1` [AS4, Astragaloside IV], for which the “MMP-13, Western blot, relative to Ctrl 1.00” value in the data set with MMP-13 (IL-1β-pre-treated SW1353 cell extract) came to 1.10; in the data set on MMP-13 (IL-1β-pre-treated SW1353 culture medium), 0.56; in the data set on MMP-13 (PMA-pre-treated SW1353 cell extract), 0.79. Besides, the “value of expression of ERK1 (P44) and ERK2 (P42)” value in data set [1] was 1.7. The “MMP-2, Zymography, relative to Ctrl 1.00” value in the data set with MMP-2 turned out to be 1.01. Further, the “toxicity to SW1353 cells” value in the data set with SW1353 cells (24 or 48 hours) was “non-toxic”. Further, the “cell proliferation compared with control group” value with SW1353 cells (24 hours) and in the data set with SW1353 cells (48 hours) was “did not change significantly” throughout.
